Results on eleven compounds are retold here after ChEMBL document CHEMBL3045995, “Novel antifeeding limonoids from Dysoxylum hainanense” (2002).

In the experiment the test system is Pieris rapae. Kind of experiment: Antifeeding activity against fifth-instar larvae Pieris rapae in compound treated Brassica oleracea L leaf disk at 500 ppm measured after 24 hr relative to control. It counts as functional.

`C=C1[C@@H]([C@]2(C)[C@H]3CC(=O)O[C@@]3(C)CO[C@@H]2CC(=O)O)[C@@H](O)[C@H](OC(=O)C(O)C(C)C)[C@@]2(C)[C@H](c3ccoc3)[C@@H](O)[C@H]3O[C@]132` (stereo partly specified) [DYSOXYLUMIC ACID A] displayed an FDI of 78.7%.

As for `CC(C)C(O)C(=O)OC(C(=O)O[C@@H]1[C@H](O)[C@@H]2[C@](C)(/C=C\C(=O)OC[C@@]2(C)O)[C@H]2CC[C@@]3(C)[C@H](c4ccoc4)OC(=O)[C@H]4O[C@]43[C@]12C)C(C)C` (stereo partly specified) [DYSOXYLUMOLIDE C], the FDI was found to be 22.4%.

On to `C=C1[C@@H]([C@]2(C)[C@H]3CC(=O)O[C@@]3(C)CO[C@@H]2CC(=O)O)[C@@H](O)[C@H](OC(=O)C(O)C(C)C)[C@@]2(C)[C@H](C3=CC(O)OC3=O)[C@@H](O)[C@H]3O[C@]132` (stereo partly specified) [DYSOXYLUMIC ACID B], for which the FDI is 64.1%.

Consider `C=C1[C@@H]([C@@]2(C)[C@@H](OC(C)=O)CC(=O)O[C@](C)(COC(C)=O)[C@@H]2CC(=O)OC)[C@@H](OC=O)[C@H](OC(=O)[C@H](O)C(C)C)[C@@]2(C)[C@@H](c3ccoc3)[C@@H](OC(=O)[C@H](OC(C)=O)C(C)C)[C@H]3O[C@]132` [DYSOXYLUMINS B], for which the FDI is 77.4%.

`C=C1[C@@H]([C@@]2(C)[C@@H](OC(C)=O)CC(=O)O[C@](C)(COC(C)=O)[C@@H]2CC(=O)OC)[C@@H](OC=O)[C@H](OC(=O)[C@H](O)C(C)C)[C@@]2(C)[C@@H](c3ccoc3)[C@@H](OC(=O)[C@H](O)C(C)C)[C@H]3O[C@]132` [DYSOXYLUMINS C] displayed an FDI of 74.9%.

`C=C1[C@@H]2[C@@H](O[C@@H](CC(=O)O)[C@@]2(C)[C@H]2CC(=O)O[C@]2(C)CO)[C@H](OC(=O)C(O)C(C)C)[C@@]2(C)[C@H](c3ccoc3)[C@@H](O)[C@H]3O[C@]132` (stereo partly specified) [DYSOXYLUMIC ACID C] registered an FDI of 59.4%.

Turning to `CC(C)C(O)C(=O)O[C@H]1[C@H](O)[C@H]2C(=C3[C@H](O)[C@H](O)[C@@H](c4ccoc4)[C@@]31C)COC(=O)C[C@@H](OC(=O)C(O)C(C)C)[C@@]2(C)[C@H]1CC(=O)OC[C@@]1(C)O` (stereo partly specified) [DYSOXYLUMOLIDE B], the FDI is reported as 28.3%.

In the case of `C=C1[C@@H]2[C@@H](O[C@H]3CC(=O)O[C@@]4(C)COC(=O)C[C@@H]4[C@]32C)[C@H](OC(=O)C(O)C(C)C)[C@@]2(C)[C@H](c3ccoc3)[C@@H](OC(=O)C(O)C(C)C)[C@H]3O[C@]132` (stereo partly specified) [DYSOXYLUMOLIDE A], the FDI is 27.9%.

`C=C1[C@@H]([C@@]2(C)[C@@H](OC(C)=O)CC(=O)O[C@](C)(COC(C)=O)[C@@H]2CC(=O)OC)[C@@H](OC=O)[C@H](OC(=O)[C@H](O)C(C)C)[C@@]2(C)[C@@H](c3ccoc3)[C@@H](OC(=O)[C@@H](C)CC)[C@H]3O[C@]132` [DYSOXYLUMINS A] showed an FDI of 73.8%.

The compound `C/C=C(\C)C(=O)O[C@H]1C[C@@H](OC(C)=O)[C@@]2(C(=O)OC)CO[C@H]3[C@@H](O)[C@@](C)([C@]45O[C@@]4(C)[C@@H]4C[C@H]5O[C@@H]5OC=C[C@@]54O)[C@H]4[C@]1(CO[C@]4(O)C(=O)OC)[C@@H]32` [AZADIRACHTIN A] registered an FDI of 100%.

As to `CC(=O)O[C@@H]1[C@H]2C(=C3[C@H](O)[C@H](O)[C@@H](c4ccoc4)[C@]3(C)[C@H]1OC(=O)C(O)C(C)C)COC(=O)C[C@@H](OC(=O)C(O)C(C)C)[C@@]2(C)[C@@H](CC(=O)O)C(C)(O)CO` (stereo partly specified) [DYSOXYLUMIC ACID D], the FDI is on record as 29.5%.
